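Grown in 96-well plates, cells were treated for 48 hours with each compound at five concentrations. Insufficient inhibition: endpoint recorded as highest concentration tested. The concentration for 50% growth inhibition is given as GI50. TGI: concentration producing complete growth inhibition.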
Experiments:
Assay in all cases: NCI tumour cell line growth inhibition, 48 h
SN12C renal = tested on: SN12C renal
HCT-15 colon = tested on: HCT-15 colon
UO-31 renal = tested on: UO-31 renal
SW-620 colon = tested on: SW-620 colon
TK-10 renal = tested on: TK-10 renal
NCI-H460 lung = tested on: NCI-H460 lung
SR leukemia = tested on: SR leukemia
A549 NSCLC = tested on: A549 NSCLC
SNB-75 CNS = tested on: SNB-75 CNS
U251 CNS = tested on: U251 CNS
EKVX NSCLC = tested on: EKVX NSCLC
SF-295 CNS = tested on: SF-295 CNS
786-0 renal = tested on: 786-0 renal
UACC-62 melanoma = tested on: UACC-62 melanoma
PC-3 prostate = tested on: PC-3 prostate
BT-549 breast = tested on: BT-549 breast
MCF7 breast = tested on: MCF7 breast
DU-145 prostate = tested on: DU-145 prostate
K-562 leukemia = tested on: K-562 leukemia
OVCAR-8 ovarian = tested on: OVCAR-8 ovarian
CCRF-CEM leukemia = tested on: CCRF-CEM leukemia
NCI-H23 lung = tested on: NCI-H23 lung
RXF 393 renal = tested on: RXF 393 renal
OVCAR-5 ovarian = tested on: OVCAR-5 ovarian
COLO 205 colon = tested on: COLO 205 colon
HT29 colon = tested on: HT29 colon
NCI-H522 lung = tested on: NCI-H522 lung
KM12 colon = tested on: KM12 colon
SK-MEL-5 melanoma = tested on: SK-MEL-5 melanoma
HL-60(TB) leukemia = tested on: HL-60(TB) leukemia
MDA-MB-231 breast = tested on: MDA-MB-231 breast
T-47D breast = tested on: T-47D breast
LOX IMVI melanoma = tested on: LOX IMVI melanoma
SF-539 CNS = tested on: SF-539 CNS
HCC-2998 colon = tested on: HCC-2998 colon
HS 578T breast = tested on: HS 578T breast
SK-OV-3 ovarian = tested on: SK-OV-3 ovarian
ACHN renal = tested on: ACHN renal
HOP-92 NSCLC = tested on: HOP-92 NSCLC
IGROV1 ovarian = tested on: IGROV1 ovarian
CAKI-1 renal = tested on: CAKI-1 renal
SK-MEL-2 melanoma = tested on: SK-MEL-2 melanoma
M14 melanoma = tested on: M14 melanoma
A498 renal = tested on: A498 renal
OVCAR-4 ovarian = tested on: OVCAR-4 ovarian
RPMI-8226 leukemia = tested on: RPMI-8226 leukemia
HOP-62 NSCLC = tested on: HOP-62 NSCLC
SF-268 CNS = tested on: SF-268 CNS
MDA-MB-435 = tested on: MDA-MB-435
MALME-3M melanoma = tested on: MALME-3M melanoma
NCI/ADR-RES ovarian = tested on: NCI/ADR-RES ovarian
MOLT-4 leukemia = tested on: MOLT-4 leukemia
SNB-19 CNS = tested on: SNB-19 CNS
NCI-H226 lung = tested on: NCI-H226 lung
OVCAR-3 ovarian = tested on: OVCAR-3 ovarian
HCT-116 colon = tested on: HCT-116 colon
SK-MEL-28 melanoma = tested on: SK-MEL-28 melanoma
UACC-257 melanoma = tested on: UACC-257 melanoma

COc1cc2c(Oc3ccc4[nH]c(C)cc4c3F)ncnc2cc1OCCCN1CCCC1
GI50 (SN12C renal): 3.84 µM | TGI (SN12C renal): 19.9 µM | GI50 (HCT-15 colon): 3.16 µM | TGI (HCT-15 colon): 15.2 µM | GI50 (UO-31 renal): 0.544 µM | TGI (UO-31 renal): 5.64 µM | GI50 (SW-620 colon): 3.77 µM | TGI (SW-620 colon): 14.7 µM | GI50 (TK-10 renal): 1.57 µM | TGI (TK-10 renal): 6.98 µM | GI50 (NCI-H460 lung): 3.29 µM | TGI (NCI-H460 lung): 11.6 µM | GI50 (SR leukemia): 3.06 µM | TGI (SR leukemia): 15 µM | GI50 (A549 NSCLC): 3.07 µM | TGI (A549 NSCLC): 13 µM | GI50 (SNB-75 CNS): 0.959 µM | TGI (SNB-75 CNS): 5.09 µM | GI50 (U251 CNS): 1.43 µM | TGI (U251 CNS): 6.99 µM | GI50 (EKVX NSCLC): 6.07 µM | TGI (EKVX NSCLC): 22.1 µM | GI50 (SF-295 CNS): 2.81 µM | TGI (SF-295 CNS): 13.2 µM | GI50 (786-0 renal): 3.57 µM | TGI (786-0 renal): 13.3 µM | GI50 (UACC-62 melanoma): 2.77 µM | TGI (UACC-62 melanoma): 6.73 µM | GI50 (PC-3 prostate): 4.63 µM | TGI (PC-3 prostate): 17.5 µM | GI50 (BT-549 breast): 2.98 µM | TGI (BT-549 breast): 10.8 µM | GI50 (MCF7 breast): 3.79 µM | TGI (MCF7 breast): 18.5 µM | GI50 (DU-145 prostate): 4.66 µM | TGI (DU-145 prostate): 16 µM | GI50 (K-562 leukemia): 2.15 µM | TGI (K-562 leukemia): 7.44 µM | GI50 (OVCAR-8 ovarian): 3.88 µM | TGI (OVCAR-8 ovarian): 15.6 µM | GI50 (CCRF-CEM leukemia): 3.74 µM | TGI (CCRF-CEM leukemia): 16.8 µM | GI50 (NCI-H23 lung): 5.17 µM | TGI (NCI-H23 lung): 22.7 µM | GI50 (RXF 393 renal): 1.07 µM | TGI (RXF 393 renal): 3.31 µM | GI50 (OVCAR-5 ovarian): 4.72 µM | TGI (OVCAR-5 ovarian): 19.5 µM | GI50 (COLO 205 colon): 1.83 µM | TGI (COLO 205 colon): 3.58 µM | GI50 (HT29 colon): 1.7 µM | TGI (HT29 colon): 4.09 µM | GI50 (NCI-H522 lung): 2.33 µM | TGI (NCI-H522 lung): 5.99 µM | GI50 (KM12 colon): 4.33 µM | TGI (KM12 colon): 15.3 µM | GI50 (SK-MEL-5 melanoma): 1.62 µM | TGI (SK-MEL-5 melanoma): 3.17 µM | GI50 (HL-60(TB) leukemia): 2.04 µM | TGI (HL-60(TB) leukemia): 4.37 µM | GI50 (MDA-MB-231 breast): 2.54 µM | TGI (MDA-MB-231 breast): 7.58 µM | GI50 (T-47D breast): 1.8 µM | TGI (T-47D breast): 4.72 µM | GI50 (LOX IMVI melanoma): 1.62 µM | TGI (LOX IMVI melanoma): 4.31 µM | GI50 (SF-539 CNS): 0.46 µM | TGI (SF-539 CNS): 2.47 µM | GI50 (HCC-2998 colon): 3.77 µM | TGI (HCC-2998 colon): 11.8 µM | GI50 (HS 578T breast): 1.32 µM | TGI (HS 578T breast): 6.89 µM | GI50 (SK-OV-3 ovarian): 5.53 µM | TGI (SK-OV-3 ovarian): 19 µM | GI50 (ACHN renal): 1.96 µM | TGI (ACHN renal): 14.9 µM | GI50 (HOP-92 NSCLC): 0.761 µM | TGI (HOP-92 NSCLC): 5.2 µM | GI50 (IGROV1 ovarian): 1.45 µM | TGI (IGROV1 ovarian): 14.2 µM | GI50 (CAKI-1 renal): 2.79 µM | TGI (CAKI-1 renal): 13.9 µM | GI50 (SK-MEL-2 melanoma): 3.84 µM | TGI (SK-MEL-2 melanoma): 10.3 µM | GI50 (M14 melanoma): 1.88 µM | TGI (M14 melanoma): 3.78 µM | GI50 (A498 renal): 0.129 µM | TGI (A498 renal): 0.72 µM | GI50 (OVCAR-4 ovarian): 1.38 µM | TGI (OVCAR-4 ovarian): 8.99 µM | GI50 (RPMI-8226 leukemia): 3.63 µM | TGI (RPMI-8226 leukemia): 10.7 µM | GI50 (HOP-62 NSCLC): 2.03 µM | TGI (HOP-62 NSCLC): 10.5 µM | GI50 (SF-268 CNS): 4.06 µM | TGI (SF-268 CNS): 16.6 µM | GI50 (MDA-MB-435): 2.75 µM | TGI (MDA-MB-435): 8.98 µM | GI50 (MALME-3M melanoma): 2.48 µM | TGI (MALME-3M melanoma): 7.02 µM | GI50 (NCI/ADR-RES ovarian): 9.69 µM | TGI (NCI/ADR-RES ovarian): 24.7 µM | GI50 (MOLT-4 leukemia): 2.55 µM | TGI (MOLT-4 leukemia): 13.8 µM | GI50 (SNB-19 CNS): 6.47 µM | TGI (SNB-19 CNS): 22.2 µM | GI50 (NCI-H226 lung): 0.675 µM | TGI (NCI-H226 lung): 9.15 µM | GI50 (OVCAR-3 ovarian): 2.25 µM | TGI (OVCAR-3 ovarian): 7.56 µM | GI50 (HCT-116 colon): 3.96 µM | TGI (HCT-116 colon): 14.7 µM | GI50 (SK-MEL-28 melanoma): 2.57 µM | TGI (SK-MEL-28 melanoma): 6.68 µM | GI50 (UACC-257 melanoma): 1.75 µM | TGI (UACC-257 melanoma): 3.53 µM

Source: PubChem BioAssay (NCI)
